Structures can show the parent of a compound that is named as a salt.

This assay relates to cellular pERK in NCI-H1975 cells (EGFR/L858R-T790M). Nature of the assay: pERK potency assay (In Cell ELISA). It counts as cell-based. To be noted: Homo sapiens, 1 h compound incubation. The text has this: The assay measures the ability of a compound to inhibit SOS1 function in cells. SOS1 activates RAS proteins by catalyzing the conversion of RAS GDP to RAS GTP in response to receptor tyrosine kinase activation. Activation of RAS induces a sequence of cellular signaling events that result in increased phosphorylation of ERK at Threonine 202 and Tyrosine 204 (pERK). The procedure (i.e., In Cell ELISA as described below) measures the level of cellular pERK in response to a test compound in NCI-H1975 cells (EGFR/L858R-T790M).
First, NCI-H1975 cells were grown and maintained using media and procedures recommended by the ATCC. A day before compound addition, cells were plated in poly-D-lysine coated 96-well cell culture plates (Corning® BioCoat® Cat #356640) at 25000 cells/well/100 μL and grown overnight in an incubator at 37° C. with 5% CO2. A solution of a test compound was prepared with 3-fold serial dilutions in DMSO having a top concentration of 6 mM. On the day of the assay, 50 μL of a test compound dilution in media was added to each well of cell culture plate with a final compound concentration in the range of 0.001 μM to 20 μM. After addition of the compound, cells were incubated for 1 h at 37° C. with 5% CO2, after which the culture medium was removed. Cells were fixed with 4% formaldehyde in phosphate-buffered saline (PBS) and incubated at RT for 20 min. The plate was washed three times with PBST (PBS with 0.05% Tween®-20), followed by incubation with 100 μL of pre-cooled methanol at −20° C. for 20 min. After incubation, methanol was removed. The plate was again washed with PBST. Cells were then permeabilized with 100 μL/well of 0.1% Triton X-100 in PBS at RT for 20 min and then quenched with a quenching buffer (PBST containing 1% H2O2 and 0.1% sodium azide) for 20 min at RT with gentle shaking. After washing once with PBST, a blocking buffer (250 uL/well, Pierce™ Protein-Free-PBS Blocking Buffer, Cat #37572) was then added to the cells for 1-h incubation at RT, followed by an anti-pERK antibody (cell signaling, 1:1000 dilution in 5% BSA in PBST) incubation overnight at 4° C. and a secondary antibody-HRP (Jackson immunoresearch, 1:3000 dilution in 5% BSA in PBST) incubation at RT for 1 h. PBST wash was carried out after each step three times. Before the addition of a substrate (Advansta ELISABright™), the plate was washed with PBS twice to remove detergent residues. The Cellular pERK level was determined using the microplate reader (Biotek Synergy™ H1) to detect the chemiluminescence signal. IC50 was determined by fitting a 4-parameter sigmoidal concentration-response model.
For the molecule `CC(=O)N1CCC(F)(c2cc3/c(=N/[C@H](C)c4cccc(C(F)(F)F)c4C)nc(C)n(C)c3cn2)CC1` [Compound 1, (R,Z)-1-(4-(1,2-dimethyl-4-((1-(2-methyl-3-(trifluoromethyl)phenyl)ethyl)imino)-1,4-dihydropyrido[3,4-d]pyrimidin-6-yl)-4-fluoropiperidin-1-yl)ethan-1-one], the IC50 was less than 100 nM.
`CC(=O)N1CC=C(c2cc3/c(=N/[C@H](C)c4cccc(C(F)(F)F)c4C)nc(C)n(C)c3cn2)CC1` [Compound 2, (R,Z)-1-(4-(1,2-dimethyl-4-((1-(2-methyl-3-(trifluoromethyl)phenyl)ethyl)imino)-1,4-dihydropyrido[3,4-d]pyrimidin-6-yl)-3,6-dihydropyridin-1(2H)-yl)ethan-1-one]: the IC50 was less than 100 nM.
In the case of `CC(=O)N1CC=C(c2cc3/c(=N/[C@H](C)c4cccc(C(F)(F)F)c4C)nc(C4CC4)n(C)c3cn2)CC1` [Compound 3], the IC50 was less than 100 nM.
On to `CC(=O)N1CC=C(c2cc3/c(=N/[C@H](C)c4cccc(C(F)F)c4F)nc(C)n(C)c3cn2)CC1` [Compound 4, (R,Z)-1-(4-(4-((1-(3-(difluoromethyl)-2-fluorophenyl)ethyl)imino)-1,2-dimethyl-1,4-dihydropyrido[3,4-d]pyrimidin-6-yl)-3,6-dihydropyridin-1(2H)-yl)ethan-1-one], for which the IC50 was less than 100 nM.
With `CC(=O)N1CCC(O)(c2cc3/c(=N/[C@H](C)c4cccc(C(F)F)c4F)nc(C)n(C)c3cn2)CC1` [Compound 5, (R,Z)-1-(4-(4-((1-(3-(difluoromethyl)-2-fluorophenyl)ethyl)imino)-1,2-dimethyl-1,4-dihydropyrido[3,4-d]pyrimidin-6-yl)-4-hydroxypiperidin-1-yl)ethan-1-one], the IC50 was less than 100 nM.
As to `CC(=O)N1CCC(F)(c2cc3/c(=N/[C@H](C)c4cccc(C(F)F)c4F)nc(C)n(C)c3cn2)CC1` [Compound 6, (R,Z)-1-(4-(4-((1-(3-(difluoromethyl)-2-fluorophenyl)ethyl)imino)-1,2-dimethyl-1,4-dihydropyrido[3,4-d]pyrimidin-6-yl)-4-fluoropiperidin-1-yl)ethan-1-one], the IC50 was less than 100 nM.
The value for `CC(=O)N1CC=C(c2cc3/c(=N/[C@H](C)c4cccc(C#N)c4C)nc(C)n(C)c3cn2)CC1` [Compound 7] was less than 100 nM; that for `CC(=O)N1CCC(F)(c2cc3/c(=N/[C@H](C)c4cccc(C#N)c4C)nc(C)n(C)c3cn2)CC1` [Compound 8] was less than 100 nM.
With `CC(=O)N1CC=C(c2cc3/c(=N/[C@H](C)c4cccc(C(F)(F)F)c4C)nc(C)n(C(C)C)c3cn2)CC1` [Compound 9], the IC50 was less than 100 nM.
For `CC(=O)N1CC=C(c2cc3/c(=N/[C@H](C)c4cccc(C(F)(F)F)c4C)nc(C)n(C4CC4)c3cn2)CC1` [Compound 10], the IC50 was less than 100 nM.
Take `C#C[C@@H](/N=c1\nc(C)n(C)c2cnc(C3=CCN(C(C)=O)CC3)cc12)c1cccc(C(F)(F)F)c1C` [Compound 11]: the IC50 is less than 100 nM.
For the molecule `CC(=O)N1CC=C(c2cnc3c(c2)/c(=N/[C@H](C)c2cccc(C(F)(F)F)c2C)nc(C)n3C)CC1` [Compound 12], the IC50 was less than 100 nM.
Consider `CC(=O)N1CCC(F)(c2cnc3c(c2)/c(=N/[C@H](C)c2cccc(C(F)(F)F)c2C)nc(C)n3C)CC1` [Compound 13], for which the IC50 was less than 100 nM.
Consider `CC(=O)N1CC=C(c2cc3/c(=N/[C@H](C)c4cccc(C(F)(F)F)c4C)ncn(C4CC4)c3cn2)CC1` [Compound 14], for which the IC50 is less than 100 nM.
Turning to `CC(=O)N1CCC(F)(c2cc3/c(=N/[C@H](C)c4cccc(C(F)(F)F)c4C)ncn(C)c3cn2)CC1` [Compound 15, (R,Z)-1-(4-fluoro-4-(1-methyl-4-((1-(2-methyl-3-(trifluoromethyl)phenyl)-ethyl)imino)-1,4-dihydropyrido[3,4-d]pyrimidin-6-yl)piperidin-1-yl)ethan-1-one hydrochloride], the IC50 was less than 100 nM.
On to `CC(=O)N1CC=C(c2cc3/c(=N/[C@H](C)c4cccc(C(F)(F)F)c4C)ncn(C)c3cn2)CC1` [Compound 16], for which the IC50 is less than 100 nM.
Take `CC(=O)N1CCC(F)(c2ccc3c(c2)/c(=N/[C@H](C)c2cccc(C(F)(F)F)c2C)ncn3C)CC1` [Compound 17]: the IC50 is less than 100 nM.
With `Cc1c([C@@H](C)/N=c2\nc(C)n(C)c3cnc(C4(C(F)F)CC4)cc23)cccc1C(F)(F)F` [Compound 18, (R,Z)-6-(1-(difluoromethyl)cyclopropyl)-1,2-dimethyl-N-(1-(2-methyl-3-(trifluoromethyl)phenyl)ethyl)pyrido[3,4-d]pyrimidin-4(1H)-imine], the IC50 is less than 100 nM.
Take `Cc1c(C#N)cccc1[C@@H](C)/N=c1\nc(C)n(C)c2cnc(C3(C(F)F)CC3)cc12` [Compound 19]: the IC50 was less than 100 nM.
Turning to `C[C@@H](/N=c1\ncn(C)c2cnc(C3(C(F)F)CC3)cc12)c1cccc(C(F)F)c1F` [Compound 20, (R,Z)—N-(1-(3-(difluoromethyl)-2-fluorophenyl)ethyl)-6-(1-(difluoromethyl)-cyclopropyl)-1-methylpyrido[3,4-d]pyrimidin-4(1H)-imine], the IC50 was less than 100 nM.
`C#C[C@@H](/N=c1\ncn(C)c2cc(=O)n(C3(C(F)F)CC3)cc12)c1cccc(C(F)(F)F)c1C` [Compound 21, (R,Z)-6-(1-(difluoromethyl)cyclopropyl)-1-methyl-4-((1-(2-methyl-3-(trifluoromethyl)phenyl)prop-2-yn-1-yl)imino)-4,6-dihydropyrido[4,3-d]pyrimidin-7(1H)-one]: the IC50 is less than 100 nM.
For the molecule `COc1nc(C2(O)CCN(C(C)=O)CC2)cc2/c(=N/[C@H](C)c3cccc(C(F)(F)F)c3C)ncn(C)c12` [Compound 22, (R,Z)-1-(4-hydroxy-4-(8-methoxy-1-methyl-4-((1-(2-methyl-3-(trifluoromethyl)phenyl)ethyl)imino)-1,4-dihydropyrido[3,4-d]pyrimidin-6-yl)piperidin-1-yl)ethan-1-one], the IC50 was less than 100 nM.
On to `COc1nc(C2(F)CCN(C(C)=O)CC2)cc2/c(=N/[C@H](C)c3cccc(C(F)(F)F)c3C)ncn(C)c12` [Compound 23, (R,Z)-1-(4-fluoro-4-(8-methoxy-1-methyl-4-((1-(2-methyl-3-(trifluoromethyl)phenyl)ethyl)imino)-1,4-dihydropyrido[3,4-d]pyrimidin-6-yl)piperidin-1-yl)ethan-1-one], for which the IC50 is less than 100 nM.
Turning to `COc1nc(C2(O)CC(C)(C)N(C(C)=O)C(C)(C)C2)cc2/c(=N/[C@H](C)c3cccc(C(F)(F)F)c3C)ncn(C)c12` [Compound 24, (R,Z)-1-(4-hydroxy-4-(8-methoxy-1-methyl-4-((1-(2-methyl-3-(trifluoromethyl)phenyl)ethyl)imino)-1,4-dihydropyrido[3,4-d]pyrimidin-6-yl)-2,2,6,6-tetramethylpiperidin-1-yl)ethan-1-one], the IC50 was less than 100 nM.
As for `CC(=O)N1CC=C(c2cc3/c(=N/[C@H](C)c4cccc(C(F)(F)F)c4C)nc4n(c3cn2)CCC4)CC1` [Compound 25, (R,Z)-1-(4-(5-((1-(2-methyl-3-(trifluoromethyl)phenyl)ethyl)imino)-5,7,8,9-tetrahydropyrido[4,3-e]pyrrolo[1,2-a]pyrimidin-3-yl)-3,6-dihydropyridin-1(2H)-yl)ethan-1-one], the IC50 was less than 100 nM.
Consider `CC(=O)N1CCC(O)(c2cc3/c(=N/[C@H](C)c4cccc(C(F)(F)F)c4C)nc4n(c3cn2)CCC4)CC1` [Compound 26, (R,Z)-1-(4-hydroxy-4-(5-((1-(2-methyl-3-(trifluoromethyl)phenyl)ethyl)-imino)-5,7,8,9-tetrahydropyrido[4,3-e]pyrrolo[1,2-a]pyrimidin-3-yl)piperidin-1-yl)ethan-1-one], for which the IC50 was less than 100 nM.
On to `CC(=O)N1CCC(F)(c2cc3/c(=N/[C@H](C)c4cccc(C(F)(F)F)c4C)nc4n(c3cn2)CCC4)CC1` [Compound 27, (R,Z)-1-(4-fluoro-4-(5-((1-(2-methyl-3-(trifluoromethyl)phenyl)ethyl)-imino)-5,7,8,9-tetrahydropyrido[4,3-e]pyrrolo[1,2-a]pyrimidin-3-yl)piperidin-1-yl)ethan-1-one], for which the IC50 is less than 100 nM.
For the molecule `CC(=O)N1CCC(O)(c2cc3/c(=N/[C@H](C)c4cccc(C(F)F)c4F)nc4n(c3cn2)CCC4)CC1` [Compound 28], the IC50 was less than 100 nM.
In the case of `CC(=O)N1CCC(F)(c2cc3/c(=N/[C@H](C)c4cccc(C(F)F)c4F)nc4n(c3cn2)CCC4)CC1` [Compound 29], the IC50 is less than 100 nM.

(Values after patent US20240190868A1, “SOS1 INHIBITORS” (Acerand Therapeutics (USA) Limited, priority 2022, published 2024).)
